Experiments:
caspase-7 in MCF-7 cells = assay: Caspase-7 level in MCF-7 cells (ELISA); type: cell-based, human; settings: MCF-7, 24 h, versus 5-fluorouracil or untreated cells
Protocol: (§1) Referring to the cytotoxicity results, the 1,2,4-triazole-thioglycoside derivative 10 has a mitochondria-apoptotic effect on breast cancer cells through reduction of MTT by a mitochondrial enzyme. […] Along with that, such derivative elevated the release of cytochrome c into the cytosol in the treated MCF-7, in comparison with untreated one from 0.176 to 0.766 ng/ml due to disturbing mitochondrial outer membrane permeability (MOMP). In addition, the target 10 achieved better results than those afforded by from the standard 5-fluorouracil. Moreover, the level of caspase-7 was elevated in treated cells with the target 10 rather than that with 5-fluorouracil or the untreated cells as shown in Figure 4.
The micro-ELISA plate was provided in this kit pre-coated with a CASP-7-specific antibody. A biotinylated CASP-7 antibody and Avidin–horseradish peroxidase (HRP) conjugate were added. Get rid of the excess components. The substrate solution was added. Wells that contain CASP-7, biotinylated detection antibody, and Avidin-HRP conjugate will appear blue in color. The color turns yellow following the addition of sulfuric acid solution. The optical density (OD) was measured at a wavelength of 450 nm ±2 nm. […]

[1] = tested on: human breast adenocarcinoma (MDA-MB-231 cell lines); assay: MTT cytotoxicity assay, MDA-MB-231; type: cell-based; settings: MDA-MB-231, 48 h
Protocol: (§2) The synthesized compounds were studied for their cytotoxic activity against several human cancer cell lines, namely human osteosarcoma (HOS cell lines), human breast adenocarcinoma (MDA-MB-231 cell lines), human breast cancer (MCF-7 cell lines), human colorectal adenocarcinoma (Caco-2 cell lines) and human colon cell line (HCT-116 cell lines) using MTT assay at 100 µM, and the results were outlined as shown in Table 1.
(§3) Human osteosarcoma (HOS cell line), human breast adenocarcinoma (MDA-MB-231cell lines), human breast cancer (MCF-7 cell lines), human colorectal adenocarcinoma (Caco2 cell lines), human colon cell line (HCT-116 cell lines), normal human cell lines (BJ-1), and “a telomerase immortalized normal foreskin fibroblast cell line” were obtained from Karolinska Center, Department of Oncology and Pathology, Karolinska Institute and Hospital, Stockholm, Sweden.
(§4) Following culturing for 10 days, the cells were seeded at concentration of 10 × 10^3 cells per well in case of MCF-7 & MDA, 20 × 10^3 cells/well in a fresh complete growth medium in case of HCT-116, Caco2, & HOS and 40 × 10^3 cells/well in case of BJ-1 at 37 °C for 24 h in a water jacketed carbon dioxide incubator. After 48 h’ incubation, the medium was aspirated, and then 40 μl MTT salt (2.5 mg/mL) were added for a further 4 h; 200 μl 10% sodium dodecyl sulphate (SDS) in deionized water were added to each well and incubated overnight at 37 °C. The absorbance was measured at 595 nm with reference 690 nm. Doxorubicin was used as positive control, and 0.5% DMSO was used as negative control. IC50 values were calculated, using a probit analysis, and by utilizing the SPSS computer program (SPSS for Windows, statistical analysis software package/version 9/1989 SPSS Inc., Chicago, IL, USA).

[2] = tested on: Bcl-2 protein in MCF-7 cells; assay: Bcl-2 protein level in MCF-7 cells (ELISA); type: cell-based, human; settings: MCF-7, 19.6 µM (IC50), 24 h
Protocol: as §1
Bcl-2 (ng/mL) in the samples and standards were estimated as reported. A biotin-conjugated antibody was added followed by streptavidin-HRP. The reaction is then terminated by adding acid and absorbance was measured at 450 nm.
Figure 4 Levels of Bax, Bcl-2, Bax/Bcl-2 ratio, cytochrome c and caspase-7 protein in MCF-7 cells after treatment with compound 10 and the standard drug for 24 h compared with the untreated one, 5-flu: 5-fluorouracil as a reference drug.

[3] = tested on: human breast cancer (MCF-7 cell lines); assay: MTT cytotoxicity assay, MCF-7; type: cell-based
Protocol: as §2, §3, §4

[4] = tested on: human colorectal adenocarcinoma (Caco-2 cell lines); assay: MTT cytotoxicity assay, Caco-2; type: cell-based; settings: Caco-2, 48 h
Protocol: as §2, §3, §4

CDK-2/cyclin A2 = CDK-2/cyclin A2 (Homo sapiens, UniProt P24941); assay: CDK-2/cyclin A2 inhibitory assay (ELISA); type: biochemical; settings: mean of three values; read-out: IC50 (Mean ± SEM), CDK-2/Cyclin A2
Protocol: Assay of CDK-2/cyclin A2 was achieved through ELISA using an affinity tag labeled capture antibody. […] After the incubation period, the unrestrained substance has been discarded, and the wells have been washed. The added TMB (3,3′,5,5′-tetramethylbenzidine) substrate was prompted by Horseradish peroxidase (HRP), and blue coloration appeared. This reaction was stopped through the addition of stop solution to complete changing in colour from blue to yellow. The created signals were equivalent to the quantity of bound analyte, and the Robonik P2000 ELISA reader was used to record the intensity at a certain wavelength (450 nm).

## CCn1c(COc2ccc3c(-c4ccccc4)cc(=O)oc3c2)nnc1SC1OCC(O)C(O)C1O [Compound 10, 4-Phenyl-7-((4-ethyl-5-(1-(β-D-xylopyranosyl)thio)-4H-1,2,4-triazol-3-yl)meth-oxy)-2H-chromen-2-one]
caspase-7 in MCF-7 cells
  Level of caspase-7 (in words): elevated
[1]
  cytotoxicity at 100 µM: 20.6 ± 0.5%
other
  melting point: 178 to 179 °C
[2]
  Downregulation of anti-apoptotic Bcl-2 protein versus untreated cells: 5.3 folds
[3]; MCF7, 48 h
  cytotoxicity at 100 µM: 66.3 ± 1%
[3]; MCF7, MTT, 0.78–100 µM, ± SD
  IC50: 19.6 ± 0.7 µM
[4]
  cytotoxicity at 100 µM: 0.7 ± 0.003%
CDK-2/cyclin A2
  IC50: 0.15 µM

Reference: PMC9458111, “New 1,2,3-Triazole-Coumarin-Glycoside Hybrids and Their 1,2,4-Triazolyl Thioglycoside Analogs Targeting Mitochondria Apoptotic Pathway: Synthesis, Anticancer Activity and Docking Simulation” (Molecules, 2022)
